{"source": "ChEMBL document CHEMBL1149375", "about": "“Design and synthesis of dipeptidyl glutaminyl fluoromethyl ketones as potent severe acute respiratory syndrome coronovirus (SARS-CoV) inhibitors” (J Med Chem, 2006)", "note": "Square brackets hold non-standard residues; d marks the D form. Peptide text beside a SMILES is read from it. * marks the point of attachment. ξ: configuration not given here. Ile(3ξ) = CCC(C)[C@H](N)C(=O)O; ξE = NC(CCC(=O)O)C(=O)O; Cbz = O=C(OCc1ccccc1)*; CH2F = FC*", "data": [{"tested_on": "SARS-CoV", "assay": "Inhibitory activity against SARS coronavirus FFMI replication in Caco-2 cells", "type": "functional, organism-based", "settings": "Severe acute respiratory syndrome-related coronavirus", "units": {"EC50": "µM"}, "values": [{"smiles": "CC(C)C[C@H](NC(=O)OCc1ccccc1)C(=O)NC(CCC(=O)N(C)C)C(=O)CF", "note": "(stereo partly drawn) (Cbz-Leu-[ξE](NMe2)-CH2F)", "EC50": 2.4}, {"smiles": "C[C@H](NC(=O)OCc1ccccc1)C(=O)NC(CCC(=O)N(C)C)C(=O)CF", "note": "(stereo partly drawn) (Cbz-Ala-[ξE](NMe2)-CH2F)", "EC50": "> 100"}, {"smiles": "CN(C)C(=O)CCC(NC(=O)CNC(=O)OCc1ccccc1)C(=O)CF", "note": "(stereo not drawn) (Cbz-Gly-[ξE](NMe2)-CH2F)", "EC50": "> 100"}, {"smiles": "CC(C)[C@H](NC(=O)OCc1ccccc1)C(=O)NC(CCC(=O)N(C)C)C(=O)CF", "note": "(stereo partly drawn) (Cbz-Val-[ξE](NMe2)-CH2F)", "EC50": 12.6}, {"smiles": "CC(C)[C@H](NC(=O)OCc1ccccc1)C(=O)NC(CC(=O)O)C(=O)CF", "note": "(stereo not given in full)", "EC50": "> 100"}, {"smiles": "CCC(C)[C@H](NC(=O)OCc1ccccc1)C(=O)NC(CCC(=O)N(C)C)C(=O)CF", "note": "(stereo not given in full) (Cbz-[Ile(3ξ)]-[ξE](NMe2)-CH2F)", "EC50": 8.8}]}, {"tested_on": "SARS-CoV", "assay": "Inhibitory activity against SARS coronavirus FFMI replication in vero (CCL81) cells", "type": "functional, organism-based", "settings": "Severe acute respiratory syndrome-related coronavirus", "units": {"EC50": "µM"}, "values": [{"smiles": "CC(C)C[C@H](NC(=O)OCc1ccccc1)C(=O)NC(CCC(=O)N(C)C)C(=O)CF", "note": "(stereo partly drawn) (Cbz-Leu-[ξE](NMe2)-CH2F)", "EC50": 3.6}, {"smiles": "C[C@H](NC(=O)OCc1ccccc1)C(=O)NC(CCC(=O)N(C)C)C(=O)CF", "note": "(stereo partly drawn) (Cbz-Ala-[ξE](NMe2)-CH2F)", "EC50": "> 100"}, {"smiles": "CN(C)C(=O)CCC(NC(=O)CNC(=O)OCc1ccccc1)C(=O)CF", "note": "(stereo not drawn) (Cbz-Gly-[ξE](NMe2)-CH2F)", "EC50": "> 100"}, {"smiles": "CC(C)[C@H](NC(=O)OCc1ccccc1)C(=O)NC(CCC(=O)N(C)C)C(=O)CF", "note": "(stereo partly drawn) (Cbz-Val-[ξE](NMe2)-CH2F)", "EC50": 6.2}, {"smiles": "CC(C)[C@H](NC(=O)OCc1ccccc1)C(=O)NC(CC(=O)O)C(=O)CF", "note": "(stereo not given in full)", "EC50": "> 100"}, {"smiles": "CCC(C)[C@H](NC(=O)OCc1ccccc1)C(=O)NC(CCC(=O)N(C)C)C(=O)CF", "note": "(stereo not given in full) (Cbz-[Ile(3ξ)]-[ξE](NMe2)-CH2F)", "EC50": 8.9}]}, {"tested_on": "Vero", "assay": "Cytotoxicity against Vero (CCL81) cells", "type": "functional", "settings": "Chlorocebus sabaeus", "units": {"CC50": "µM"}, "values": [{"smiles": "CC(C)C[C@H](NC(=O)OCc1ccccc1)C(=O)NC(CCC(=O)N(C)C)C(=O)CF", "note": "(stereo partly drawn) (Cbz-Leu-[ξE](NMe2)-CH2F)", "CC50": "> 100"}, {"smiles": "C[C@H](NC(=O)OCc1ccccc1)C(=O)NC(CCC(=O)N(C)C)C(=O)CF", "note": "(stereo partly drawn) (Cbz-Ala-[ξE](NMe2)-CH2F)", "CC50": "> 100"}, {"smiles": "CN(C)C(=O)CCC(NC(=O)CNC(=O)OCc1ccccc1)C(=O)CF", "note": "(stereo not drawn) (Cbz-Gly-[ξE](NMe2)-CH2F)", "CC50": "> 100"}, {"smiles": "CC(C)[C@H](NC(=O)OCc1ccccc1)C(=O)NC(CCC(=O)N(C)C)C(=O)CF", "note": "(stereo partly drawn) (Cbz-Val-[ξE](NMe2)-CH2F)", "CC50": "> 100"}, {"smiles": "CC(C)[C@H](NC(=O)OCc1ccccc1)C(=O)NC(CC(=O)O)C(=O)CF", "note": "(stereo not given in full)", "CC50": "> 100"}, {"smiles": "CCC(C)[C@H](NC(=O)OCc1ccccc1)C(=O)NC(CCC(=O)N(C)C)C(=O)CF", "note": "(stereo not given in full) (Cbz-[Ile(3ξ)]-[ξE](NMe2)-CH2F)", "CC50": "> 100"}]}, {"tested_on": "rhinovirus A2", "assay": "Antiviral activity against Human rhinovirus 2 in a cell based assay", "type": "functional, organism-based", "settings": "not given", "units": {"EC50": "µg/mL"}, "values": [{"smiles": "CC(C)C[C@H](NC(=O)OCc1ccccc1)C(=O)NC(CCC(=O)N(C)C)C(=O)CF", "note": "(stereo partly drawn) (Cbz-Leu-[ξE](NMe2)-CH2F)", "EC50": "> 100"}, {"smiles": "CC(C)[C@H](NC(=O)OCc1ccccc1)C(=O)NC(CCC(=O)N(C)C)C(=O)CF", "note": "(stereo partly drawn) (Cbz-Val-[ξE](NMe2)-CH2F)", "EC50": "> 100"}, {"smiles": "CCC(C)[C@H](NC(=O)OCc1ccccc1)C(=O)NC(CCC(=O)N(C)C)C(=O)CF", "note": "(stereo not given in full) (Cbz-[Ile(3ξ)]-[ξE](NMe2)-CH2F)", "EC50": "> 100"}]}, {"tested_on": "Vero", "assay": "Selectivity index (CC50/EC50) in SARS coronavirus 6109 infected Vero cells", "type": "functional, Chlorocebus sabaeus", "settings": "not given", "values": [{"smiles": "CC(C)C[C@H](NC(=O)OCc1ccccc1)C(=O)NC(CCC(=O)N(C)C)C(=O)CF", "note": "(stereo partly drawn) (Cbz-Leu-[ξE](NMe2)-CH2F)", "Selectivity index": ">40"}, {"smiles": "CC(C)[C@H](NC(=O)OCc1ccccc1)C(=O)NC(CCC(=O)N(C)C)C(=O)CF", "note": "(stereo partly drawn) (Cbz-Val-[ξE](NMe2)-CH2F)", "Selectivity index": ">15"}, {"smiles": "CCC(C)[C@H](NC(=O)OCc1ccccc1)C(=O)NC(CCC(=O)N(C)C)C(=O)CF", "note": "(stereo not given in full) (Cbz-[Ile(3ξ)]-[ξE](NMe2)-CH2F)", "Selectivity index": ">18"}]}, {"tested_on": "SARS-CoV", "assay": "Inhibitory activity against SARS coronavirus 6109 replication in vero (CCL81) cells", "type": "functional, organism-based", "settings": "Severe acute respiratory syndrome-related coronavirus", "units": {"EC50": "µM"}, "values": [{"smiles": "CC(C)C[C@H](NC(=O)OCc1ccccc1)C(=O)NC(CCC(=O)N(C)C)C(=O)CF", "note": "(stereo partly drawn) (Cbz-Leu-[ξE](NMe2)-CH2F)", "EC50": 2.5}, {"smiles": "C[C@H](NC(=O)OCc1ccccc1)C(=O)NC(CCC(=O)N(C)C)C(=O)CF", "note": "(stereo partly drawn) (Cbz-Ala-[ξE](NMe2)-CH2F)", "EC50": "> 100"}, {"smiles": "CN(C)C(=O)CCC(NC(=O)CNC(=O)OCc1ccccc1)C(=O)CF", "note": "(stereo not drawn) (Cbz-Gly-[ξE](NMe2)-CH2F)", "EC50": "> 100"}, {"smiles": "CC(C)[C@H](NC(=O)OCc1ccccc1)C(=O)NC(CCC(=O)N(C)C)C(=O)CF", "note": "(stereo partly drawn) (Cbz-Val-[ξE](NMe2)-CH2F)", "EC50": 6.6}, {"smiles": "CC(C)[C@H](NC(=O)OCc1ccccc1)C(=O)NC(CC(=O)O)C(=O)CF", "note": "(stereo not given in full)", "EC50": "> 100"}, {"smiles": "CCC(C)[C@H](NC(=O)OCc1ccccc1)C(=O)NC(CCC(=O)N(C)C)C(=O)CF", "note": "(stereo not given in full) (Cbz-[Ile(3ξ)]-[ξE](NMe2)-CH2F)", "EC50": 5.3}]}]}
